According to patent US9487481B2, “Bicyclic compounds” (BRISTOL-MYERS SQUIBB COMPANY, priority 2013, dated 2016):
Several values for one entry are separate records, joined by “and”; a condition that tells them apart may be missing. Identical values can stand only once. Blank lines part the entries; values can stand above or below the molecule they belong to.

How the values were obtained:
mice = assay: Pulmonary Toxicity Assay (BAL protein); assay type: in vivo; details: oral, 30 mg/kg, 24 hr post-dose; for Relative BAL protein vs. control: >1 = increased pulmonary toxicity
Method: The analysis of protein levels in bronchoalveolar lavage (BAL) fluid obtained from an animal were used to gauge pulmonary side effects. Increased levels of protein in BAL fluid were indicative of undesired pulmonary effects, such as pulmonary edema. Example 1, Example 2, Compound 6, Compound 8, and Compound 11 were administered orally to mice at a dose of 30 mg/kg. At 24 hours post dose, the mice were euthanized with intraperitoneal barbiturate overdose. The animals were placed in a supine position, a skin incision was made and blunt dissection followed to expose the trachea. The trachea was incised and a catheter was inserted 4-6 mm into the trachea. Phosphate-buffered saline (PBS; 1 mL/mouse) was infused into the lungs and then aspirated. The concentration of the BAL protein in the recovered BAL fluid was determined on an ADVIA® 1800 Chemistry Analyzer (Siemens Healthcare Diagnostics). The results represent the average results of all animals within each treatment group (n=2-4).
A value for the relative BAL protein versus control of greater than 1 indicated an increase in pulmonary toxicity compared to the administration of vehicle only. In this study, as reported in Table 5, the administration of Examples 1 and 2 gave relative BAL protein levels of 0.99 and 0.96, indicating no increase in the pulmonary toxicity. The administration of Compound 8 gave a relative BAL protein level of 1.03, which indicated slight or no increase in pulmonary toxicity. In contrast, administration of Compound 6 and Compound 11 gave relative BAL protein levels of 1.94 and 1.33, indicating increased pulmonary toxicity.

circulating lymphocytes [1] = assay: Mouse Blood Lymphocyte Reduction (BLR) Assay; assay type: in vivo; details: BALB/c mice, oral, 1 mg/kg, 24 hr post-dose
Method: (§1) Lewis rats were dosed orally with vehicle alone (polyethylene glycol 300, “PEG300”) or with 2-amino-2-[2-(4-octylphenyl)ethyl]-1,3-propanediol, hydrochloride (CAS: 162359-56-0) as a solution in the vehicle at doses of 0.1 mg/kg, 0.5 mg/kg and 3.0 mg/kg adjusted to reflect the free amount of test article. The results are provided in Table 4a and the level of lymphocyte reduction at 24 hours post-dose was maximal at 3.0 mg/kg. The percent reduction in lymphocytes is dose-related but the relationship is not linear, with non-proportional increases in dose being required to elicit sequentially greater reductions in lymphocyte counts. […] BALB/c mice were dosed orally with vehicle alone (polyethylene glycol 300, “PEG300”) or with Example 1, Example 2, Compound 6, Compound 8, or Comparative Compound 11. Compounds were dosed as a solution or suspension in the vehicle, adjusted to reflect the free amount of test article in the event that salt forms are utilized. Blood was drawn at 24 hr and blood lymphocyte counts were determined on an ADVIA® 120 Hematology Analyzer (Siemens Healthcare Diagnostics). The results were measured as a reduction in the percentage of circulating lymphocytes as compared to the vehicle treated group at the time of measurement. The results represent the average results of all animals within each treatment group (n=2-4).

S1P1 [2] = molecular target: T1, S1P1 (Homo sapiens, UniProt P21453); assay: S1P1 Binding Assay (33P-S1P ligand, CHO membranes); details: membranes from CHO cells expressing human S1P1, 0.03 nM 33P-S1P
S1P1 [3] = molecular target: T1, S1P1; assay: Receptor [35S] GTPγS Binding Assay, S1P1/CHO cell membranes; assay type: biochemical; details: membranes prepared from S1P1/CHO cells
EDG3 equivalent S1P3 = EDG3 equivalent S1P3 (Homo sapiens, UniProt Q99500); assay: Receptor [35S] GTPγS Binding Assay, EDG3-Ga15-bla HEK293T cell membranes; assay type: biochemical; details: membranes prepared from EDG3-Ga15-bla HEK293T cells
GFP-tagged S1P1 receptor = molecular target: T2, GFP-tagged S1P1 receptor (Homo sapiens, UniProt P21453); assay: S1P1 Receptor Internalization Assay; assay type: cell-based; details: CHO-K1 cells expressing GFP-tagged S1P1, 45 min
T2 construct: expressed in transfected cells; host or cells: CHO-K1 cells
Method: CHO-K1 cells expressing a GFP-tagged S1P1 receptor were plated in 384-well poly-D-lysine coated tissue culture plates at 4×10^3 cells/well in 50 μl assay media (F12 with L-glutamine, 10% charcoal/dextran-treated FBS, 1× penicillin-streptomycin, 1M HEPES). Cell plates were incubated overnight at 37° C./5% CO2. Test compound were introduced to the cell plate from a compound source plate at 11 point, 3 fold serial dilutions and then the assay plates were incubated at 37° C./5% CO2 for 45 min. Cells were fixed and stained with 6% formaldehyde and 15 μg/ml Hoechst dye in PBS (Ca^2+/Mg^2+ free) at room temperature for 15 minutes. Cell plates were washed 4 times with PBS (Ca^2+/Mg^2+ free) with addition of 50 μl/PBS prior to plate sealing. Images were acquired by the Cellomics ARRAYSCAN® VTI high content imager. Data analysis for EC50 determination relative to internal control compound was accomplished using the Compartmental Analysis BioApplication on the Array Scan. The EC50 is defined as the agonist concentration that corresponds to 50% of the Ymax (maximal response) obtained for each individual compound tested and was quantified using the 4 parameter logistic equation to fit the data.

Male MRL/lpr mice = assay: MRL/lpr Mouse Model of Spontaneous Lupus Erythematosus Assay; assay type: in vivo
Method: MRL/lpr mouse model of spontaneous lupus erythematosus assay is an animal model for spontaneous lupus erythematosus.
Male MRL/lpr mice (14 weeks old; Jackson Laboratories; n=12-13) were orally dosed with Example 2 (as a solution in vehicle) or vehicle alone (polyethylene glycol 300) twice a week for 11 weeks starting on day 0. Urine protein levels (by Albustix) were measured on day 0 and throughout the study. […] Additional groups of mice received a daily oral dose of dexamethasone (Dex) either independently or in combination with twice weekly dosing with Example 2. Urine protein levels (by Albustix) were measured on day 0 and throughout the study. […] All procedures involving animals were reviewed and approved by the Institutional Animal Care Use Committee.
Example 2 was tested in the MRL/lpr mouse model of spontaneous lupus erythematosus assay described hereinabove and the results are shown in Table 9.
Example 2 and dexamethasone (Dex) either independently or in combination, were tested in the MRL/lpr mouse model of spontaneous lupus erythematosus assay described hereinabove and the results are shown in Table 10.

circulating lymphocytes [4] = assay: Rat Blood Lymphocyte Reduction (BLR) Assay; assay type: in vivo; details: Lewis rats, oral, 24 hr post-dose; for Percent reduction vs. control (rat blood lymphocytes): hydrochloride
Method: as §1

Male Lewis rats = assay: Rat Adjuvant Induced Arthritis Assay (AA); assay type: in vivo; details: prophylactic
Method: The rat adjuvant-induced arthritis model is an animal model for human rheumatoid arthritis.
Male Lewis rats (150-175 g; Harlan, n=8 treatment group) were immunized at the base of the tail with 100 μl of 10 mg/ml freshly ground Mycobacterium butyricum (Difco Laboratories) in incomplete Freund's adjuvant (sigma). Animals were dosed once daily with the test article (as a solution or suspension in the vehicle) or vehicle alone (polyethylene glycol 300, “PEG300”) starting from the day of immunization. The volumes of their hind paws were measured in a water displacement plethysmometer (Ugo Basile, Italy). The baseline paw measurements were taken before onset of the disease (between day 7 to day 10). The paw measurements were then taken three times a week until the end of the study on day 20 to 21. All procedures involving animals were reviewed and approved by the Institutional Animal Care Use Committee.
Example 2 of the present invention was tested in the Rat Adjuvant Induced Arthritis assay described hereinabove and the results are shown in Table 7.

CB-17 SCID mice = assay: Mouse T Cell Transfer Induced Colitis Assay; assay type: in vivo; details: q.o.d. oral; for Inflammation/Damage (Histology), Mean: 6 wk
Method: The mouse T Cell transfer induced colitis assay is an animal model for human colitis.
Colitis was induced in CB-17 SCID mice by the adoptive transfer of FACS sorted CD4^+CD45RB^high T cells from BALB/c mice (3×10^5/mouse, i.p.). Disease activities were monitored once a week for the initial 3 weeks and 3×/week for the subsequent weeks on the basis of body weight, soft stool or diarrhea, and anorectal prolapse. Animals were dosed orally every other day (q.o.d.) with the test article or vehicle starting from the day of T cell transfer. Mice were sacrificed 6 wk after T cell reconstitution and analyzed for bowel inflammation based on histological examination of H&E stained colon tissues. All procedures involving animals were reviewed and approved by the Institutional Animal Care Use Committee.
Example 2 was tested in the mouse T cell transfer induced colitis model described hereinabove and the results are shown in Table 8.

T1 sequence (P21453 whole entry): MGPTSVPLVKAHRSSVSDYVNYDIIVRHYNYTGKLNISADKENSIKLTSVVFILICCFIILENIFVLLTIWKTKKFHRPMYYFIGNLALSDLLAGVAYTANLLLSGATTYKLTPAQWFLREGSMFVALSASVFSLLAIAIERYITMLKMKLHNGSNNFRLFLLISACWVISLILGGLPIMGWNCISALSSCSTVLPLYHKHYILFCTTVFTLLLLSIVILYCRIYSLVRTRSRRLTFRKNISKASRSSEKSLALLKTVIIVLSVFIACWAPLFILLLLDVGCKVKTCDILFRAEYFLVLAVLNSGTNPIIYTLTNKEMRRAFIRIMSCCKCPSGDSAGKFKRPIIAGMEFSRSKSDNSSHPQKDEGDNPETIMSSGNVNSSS
EDG3 equivalent S1P3, sequence (Q99500 whole entry): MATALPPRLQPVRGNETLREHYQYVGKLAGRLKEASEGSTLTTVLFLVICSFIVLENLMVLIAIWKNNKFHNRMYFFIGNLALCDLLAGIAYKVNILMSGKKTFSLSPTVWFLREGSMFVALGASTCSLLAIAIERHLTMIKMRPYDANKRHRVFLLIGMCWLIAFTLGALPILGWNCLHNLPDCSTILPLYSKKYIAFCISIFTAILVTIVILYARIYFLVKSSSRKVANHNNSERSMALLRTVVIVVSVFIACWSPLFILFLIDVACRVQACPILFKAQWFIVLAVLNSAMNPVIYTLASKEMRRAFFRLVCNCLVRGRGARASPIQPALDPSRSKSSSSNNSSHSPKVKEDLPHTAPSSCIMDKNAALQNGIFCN
T2 sequence (P21453 whole entry): as the sequence (P21453 whole entry) above

Compound: CCCCCC[C@@H]1CCc2cc([C@@H]3CC[C@](N)(CO)C3)ccc2C1 (single isomer, unassigned) [Example 1]
Mouse BAL protein level, Compound Mean (mice): 8.25 mg/dL | Relative BAL protein vs. control (mice): 0.99 | Mouse blood lymphocytes, Compound Mean (circulating lymphocytes [1]): 0.7 | Percent reduction vs. control (mouse blood lymphocytes) (circulating lymphocytes [1]): 88%

Compound: CCCCCC[C@H]1CCc2cc([C@H]3CC[C@](N)(CO)C3)ccc2C1 [Compound 8, ((1R,3S)-1-amino-3-((S)-6-hexyl-5,6,7,8-tetrahydronaphthalen-2-yl)cyclopentyl)methanol]
Mouse BAL protein level, Compound Mean (mice): 7.5 mg/dL | Relative BAL protein vs. control (mice): 1.03 | Mouse blood lymphocytes, Compound Mean (circulating lymphocytes [1]): 2.4 | Percent reduction vs. control (mouse blood lymphocytes) (circulating lymphocytes [1]): 59%

IC50 (S1P1 [2]): 0.01 nM | EC50 (S1P1 [3]): 0.9 nM | EC50 (EDG3 equivalent S1P3): > 62500 nM
Compound: CCCCCC[C@@H]1CCc2cc([C@H]3CC[C@](N)(COP(=O)(O)O)C3)ccc2C1 [Example 10, (1R,3 S)-1-Amino-3-((R)-6-hexyl-5,6,7,8-tetrahydronaphthalen-2-yl) cyclopentyl)methyl dihydrogen phosphate]

Compound: CCCCCC[C@@H]1CCc2cc([C@@H]3CC[C@](N)(COP(=O)(O)O)C3)ccc2C1 [Example 9, ((1R,3R)-1-Amino-3-((R)-6-hexyl-5,6,7,8-tetrahydronaphthalen-2-yl)cyclopentyl)methyl dihydrogen phosphate]
EC50 (GFP-tagged S1P1 receptor): 361 nM

Compound: C[C@@H]1C[C@H]2[C@@H]3CCC4=CC(=O)C=C[C@]4(C)[C@@]3(F)[C@@H](O)C[C@]2(C)[C@@]1(O)C(=O)CO [Dex, dexamethasone, reference compound]
% Mice with Proteinurea > 100 mg/dL (Male MRL/lpr mice; 24 weeks of age, 0.1 mg/kg q.d. oral): 50% | % Mice with Proteinurea > 100 mg/dL (Male MRL/lpr mice; 24 weeks of age, 0.5 mg/kg q.d. oral): 10%

Compound: CCCCCCCCc1ccc(CCC(N)(CO)CO)cc1.Cl [2-amino-2-[2-(4-octylphenyl)ethyl]-1,3-propanediol, hydrochloride]
Rat blood lymphocytes, Compound Mean (circulating lymphocytes [4]; 0.1 mg/kg): 2.78 | Percent reduction vs. control (rat blood lymphocytes) (circulating lymphocytes [4]; 0.1 mg/kg): 69% | Rat blood lymphocytes, Compound Mean (circulating lymphocytes [4]; 0.5 mg/kg): 1.64 | Percent reduction vs. control (rat blood lymphocytes) (circulating lymphocytes [4]; 0.5 mg/kg): 82% | Rat blood lymphocytes, Compound Mean (circulating lymphocytes [4]; 3.0 mg/kg): 1.02 | Percent reduction vs. control (rat blood lymphocytes) (circulating lymphocytes [4]; 3.0 mg/kg): 89%

Compound: CCCCCOc1ccc2cc([C@@H]3CC[C@](N)(CO)C3)ccc2c1 [Comparative Compound 11, reference compound]
Mouse BAL protein level, Compound Mean (mice): 13.3 mg/dL | Relative BAL protein vs. control (mice): 1.33 | Mouse blood lymphocytes, Compound Mean (circulating lymphocytes [1]): 2.18 | Percent reduction vs. control (mouse blood lymphocytes) (circulating lymphocytes [1]): 52%

Compound: CCCCCC[C@@H]1CCc2cc([C@H]3CC[C@](N)(CO)C3)ccc2C1 (single isomer, unassigned) [Example 2]
Paw Swelling on Day 20, Mean (Male Lewis rats; 0.15 mg/kg once daily oral): 1.64 mL | Paw Swelling on Day 20, Mean (Male Lewis rats; 0.5 mg/kg once daily oral): 0.70 mL | Paw Swelling on Day 20, Mean (Male Lewis rats; 1.5 mg/kg once daily oral): 0.16 mL | Mouse BAL protein level, Compound Mean (mice): 8.0 mg/dL | Relative BAL protein vs. control (mice): 0.96 | Week 6 Percent Body Weight Changes, Mean (from 100%) (CB-17 SCID mice; 1 mg/kg): 100% → 98.7% | Inflammation/Damage (Histology), Mean (CB-17 SCID mice; 1 mg/kg): 5.46 | Week 6 Percent Body Weight Changes, Mean (from 100%) (CB-17 SCID mice; 5 mg/kg): 100% → 103.7% | Inflammation/Damage (Histology), Mean (CB-17 SCID mice; 5 mg/kg): 3.71 | % Mice with Proteinurea > 100 mg/dL (Male MRL/lpr mice; 24 weeks of age, 2 mg/kg, 2x week oral): 20% | % Mice with Proteinurea > 100 mg/dL (Male MRL/lpr mice; 25 weeks of age, 0.05 mg/kg, 2x week oral): 25% | % Mice with Proteinurea > 100 mg/dL (Male MRL/lpr mice; 25 weeks of age, 0.4 mg/kg, 2x week oral): 17% | % Mice with Proteinurea > 100 mg/dL (Male MRL/lpr mice; 25 weeks of age, 2 mg/kg, 2x week oral): 10% | Mouse blood lymphocytes, Compound Mean (circulating lymphocytes [1]): 0.54 | Percent reduction vs. control (mouse blood lymphocytes) (circulating lymphocytes [1]): 90%

Compound: CCCCCC[C@H]1CCc2cc([C@@H]3CC[C@](N)(CO)C3)ccc2C1 [Compound 6, ((1R,3R)-1-amino-3-((S)-6-hexyl-5,6,7,8-tetrahydronaphthalen-2-yl)cyclopentyl)methanol]
Mouse BAL protein level, Compound Mean (mice): 14.3 mg/dL | Relative BAL protein vs. control (mice): 1.94 and 1.96 | Mouse blood lymphocytes, Compound Mean (circulating lymphocytes [1]): 1.2 | Percent reduction vs. control (mouse blood lymphocytes) (circulating lymphocytes [1]): 78%
